Experimental data as given in patent US8367695B2, “Condensed tetrahydroquinoline derivative and use thereof for medical purposes” (Mitsubishi Tanabe Pharma Corporation, priority 2007, dated 2013).

molecular target: T1, human recombinant glucocorticoids receptor (GR) (Homo sapiens, UniProt P04150); test: Radioactive ligand binding test, GR cytosol, [3H]-Dex; conditions: [3H]-Dex about 5 nM, GR cytosol, 4° C.; Cheng-Prusoff, Kd about 3.1 nM; read-out: GR (Ki: nM)
T1 sequence (P04150 1-777): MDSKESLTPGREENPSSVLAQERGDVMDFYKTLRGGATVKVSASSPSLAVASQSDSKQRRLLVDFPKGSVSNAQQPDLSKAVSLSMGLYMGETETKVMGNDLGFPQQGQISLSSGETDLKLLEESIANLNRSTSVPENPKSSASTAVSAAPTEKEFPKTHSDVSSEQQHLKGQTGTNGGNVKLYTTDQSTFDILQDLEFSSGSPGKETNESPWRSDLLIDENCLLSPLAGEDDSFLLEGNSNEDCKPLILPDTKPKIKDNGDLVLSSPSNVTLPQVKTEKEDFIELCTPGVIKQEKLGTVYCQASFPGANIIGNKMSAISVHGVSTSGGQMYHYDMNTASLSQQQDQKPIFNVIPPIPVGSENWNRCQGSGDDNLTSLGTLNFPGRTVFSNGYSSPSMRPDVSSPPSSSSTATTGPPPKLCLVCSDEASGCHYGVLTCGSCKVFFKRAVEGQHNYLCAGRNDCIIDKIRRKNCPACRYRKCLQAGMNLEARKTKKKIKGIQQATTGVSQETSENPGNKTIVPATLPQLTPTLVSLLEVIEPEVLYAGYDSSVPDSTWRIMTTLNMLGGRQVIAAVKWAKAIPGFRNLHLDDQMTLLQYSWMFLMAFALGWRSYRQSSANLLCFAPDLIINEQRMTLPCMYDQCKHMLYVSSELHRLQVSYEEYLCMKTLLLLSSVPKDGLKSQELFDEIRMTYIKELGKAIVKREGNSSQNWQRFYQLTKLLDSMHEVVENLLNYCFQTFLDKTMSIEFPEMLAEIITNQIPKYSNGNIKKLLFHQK
Experimental: Radioactive Ligand Binding Test Using Cytosols of Human Glucocorticoids Receptor, Progesterone Receptor and Mineralocorticoid Receptor
Opthalmol. Vis. […] In brief, cytosol preparations of human recombinant glucocorticoids receptor (GR) and human recombinant progesterone receptor-B (PRB) were purchased from Invitrogen (Carlsbad, Calif.), and a cytosol preparation of human recombinant mineralocorticoid receptor (MR) was prepared by our company (Yokohama, JP). MR cDNA was cloned into a baculovirus expression vector and expressed in insect cell Sf9. […] [^3H]-Dexamethasone (Dex, specific activity 91.0 Ci/mmol) was purchased from GE Healthcare (Buckinghamshire, UK), and [^3H]-progesterone (Prog, specific activity 103 Ci/mmol) and [3H]-aldosterone (Ald, specific activity 87.9 Ci/mmol) were each purchased from PerkinElmer (Boston, Mass.). Polypropylene round-bottomed 96 well plate was obtained from ABgene (Epsom, UK). Dimethyl Sulfoxide (DMSO) and hydrochloric acid were obtained from Kanto Chemical (TOKYO, JP). Trizma Base (Tris), Bovine Serum Albumin (BSA) and Sodium tungstate dihydrate were obtained from Sigma Chemicals (St. Louis, Mo.). Dithiothreitol (DTT) and Dextran 70 were obtained from GE Healthcare (Buckinghamshire, UK). Glycerol was obtained from Junsei Chemical (TOKYO, JP). Norit® “SX-II” was obtained from Wako Pure Chemical Industries, Ltd. (Osaka, JP). MeltiLex™, A, Printed Filtermat A and Sample Bag were obtained from PerkinElmer (Boston, Mass.).
As a buffer for GR binding assay, 25 mM Tris-HCl (4° C., pH 7.4)/1 mM EDTA·2Na/1 mM DTT/0.1% BSA was prepared and used. As buffers for PRB and MR binding assay, 10 mM Tris-HCl (4° C., pH 7.4)/1 mM DTT/0.1% BSA/10% glycerol and 20 mM Tris-HCl (4° C., pH 7.4)/1 mM EDTA·2Na/10% glycerol/20 mM sodium tungstate were respectively prepared and used.
Compound storage solutions (5-20 mM) were prepared using DMSO. The storage solutions were diluted with DMSO to 0.1 mM (for GR) and 0.3 mM (for PRB and MR), and further diluted 20-fold with distilled water to give solutions. Then, the preparations were diluted to each concentration with 5% DMSO solution. 1% DMSO was present at the time of the binding assay.
GR, PRB and MR binding reactions were performed in 96 well plate (ABgene). In the case of GR binding assay, [^3H]-Dex (about 5 nM), GR cytosol (concentration of function receptor: about 4 pmol/mL), a test compound and a binding buffer were mixed in a total volume of 50 μL, and the mixture was stood at 4° C. for 30 min or longer. A specific binding was defined to be the difference in the [^3H]-Dex binding between the presence and the absence of 1 μM unlabeled Dex.
After the reaction, 50 μL of DCC was added to each well and blended. Thereafter, the mixture was stood at 4° C. for 10 min. The plate was applied to high-speed cooling centrifuge under the conditions of 4° C., 2000 rpm, 5 min to perform B/F separation. A given amount of the supernatant was recovered, which was spotted on Filtermat A of 96 well format (PerkinElmer) and rapidly dried at a high temperature.
Measurement of Inhibition Constant (Ki)
Ki of the test compound was determined by the following Cheng-Prusoff equation: Ki=IC50/(1+[L*]/Kd) • wherein L* is a concentration of radioactive ligand and Kd is a dissociation constant for radioactive ligand determined by saturation analysis.

Ki [nM] | Structure (SMILES)
35 | CC1(C)Nc2c(cc(-c3cccc4ncccc34)c3occc23)C(C)(C)C1=O [Example 101, 2,2,4,4-tetramethyl-6-(quinolin-5-yl)-1,2,3,4-tetrahydro-furo [2,3-h]quinolin-3-one]
66 | CC1(C)Nc2c(cc(-c3ccnc4ncccc34)c3occc23)C(C)(C)C1=O [Example 102, 2,2,4,4-tetramethyl-6-([1,8]naphthyridin-4-yl)-1,2,3,4-tetrahydro-furo[2,3-h]quinolin-3-one]
60 | Cc1noc(C)c1-c1cc2c(c3c1C(=O)CC3)NC(C)(C)C(=O)C2(C)C [Example 104, 6-(3,5-dimethylisoxazol-4-yl)-2,2,4,4-tetramethyl-2,3,4,7,8,9-hexahydro-1H-cyclopenta[h]quinoline-3,7-dione]
